# Patent publication US20230021483A1, “[…] […] METHOD AND CLASSIFICATION OF PHARMACEUTICAL COMPONENTS BY USING TRANSCRIPTOMES” (National Institutes of Biomedical Innovation, Health and …, priority 2016, published 2023)
# Key:
# [1] = tested on: inguinal lymph nodes (LN); test: Whole organ transcriptome (GeneChip microarray) of draining inguinal lymph nodes 6 h after adjuvant administration: sDEGs, gene modules, hierarchical clustering; assay type: in vivo, C57BL/6 mice; on adjuvant group (cluster) in LN: key: G1 (interferon signaling); G2 (metabolism of lipids and lipoproteins); G3 (response to stress); G4 (response to wounding); G5 (phosphate-containing compound metabolic process); G6 (phagosome)
# [2] = tested on: preferentially upregulated genes in LV, SP, LN; test: Z-score-based differential gene expression analysis (adjuvant group- or adjuvant-associated genes, 40 module mapping, TargetMine annotation); assay type: in vivo, C57BL/6 mice; details: ID
# Method in brief: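 Per-sample fold-change values converted to gene-wise z-scores within each organ's data set, then triplicate z-scores summed per adjuvant. Genes with summed score >3 taken as preferentially expressed; gene groups defined by combined per-adjuvant z-score thresholds (z>1 to z>3) specific to each organ.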
compound,measurement,setting,value
"Cc1ccc2c(=O)c3cccc(CC(=O)O)c3oc2c1C [DMXAA, 5,6-dimethylxanthenone-4-acetic acid]","module M40^LN (immune system process; dendritic cells, macrophages, neutrophils, stromal cells)","[1]; LN, 6 h",strongly induced
same,adjuvant group (cluster) in LN,"[1]; hierarchical clustering, lymph node",G1
same,"Number of gene probes with statistically significant changes (sDEGs), LN, Down","[1]; i.d. administration, lymph node, fold change <0.667, p<0.01, customized PA call=1, 6 h after adjuvant",261
same,"Number of gene probes with statistically significant changes (sDEGs), LN, Up","[1]; i.d. administration, lymph node, fold change >1.5, p<0.01, customized PA call=1, 6 h after adjuvant",1342
same,"z sum, 1428027_at LOC100653389","[2]; LN, Modules 26",−2.22
same,"z sum, 1419721_at Niacr1","[2]; LN, Modules 27",−1.88
same,"z sum, 1418424_at Tnfaip6","[2]; LN, Modules 29",−1.91
same,"z sum, 1419534_at Olr1","[2]; LN, Modules 29",−1.6
same,"z sum, 1421457_a_at Samsn1","[2]; LN, Modules 29",−2.04
same,"z sum, 1422305_at Ifnb1","[2]; LN, Modules 29",−1.99
same,"z sum, 1423028_at Ifna2","[2]; LN, Modules 29",−2.04
same,"z sum, 1425837_a_at Ccrn4l","[2]; LN, Modules 29",−1.85
same,"z sum, 1436387_at C330006P03Rik///Homer1","[2]; LN, Modules 29",−2.24
same,"z sum, 1439349_at Sbno2","[2]; LN, Modules 29",−1.84
same,"z sum, 1444010_at Eif4e","[2]; LN, Modules 29",−1.94
same,"z sum, 1448325_at Ppp1r15a","[2]; LN, Modules 29",−1.63
same,"z sum, 1449311_at Bach1","[2]; LN, Modules 29",−1.97
same,"z sum, 1450297_at Il6","[2]; LN, Modules 29",−1.88
same,"z sum, 1455197_at Rnd1","[2]; LN, Modules 29",−1.86
same,"z sum, 1455899_x_at Socs3","[2]; LN, Modules 29",−1.79
same,z sum,"[2]; LN, Modules 34",−2.09
same,"z sum, 1417252_at Ptgs2","[2]; LN, Modules 34",−1.55
same,"z sum, 1417263_at Ptgs2","[2]; LN, Modules 34",−1.77
same,"z sum, 1421473_at Il1a","[2]; LN, Modules 34",−1.71
same,"z sum, 1439981_at Tespa1","[2]; LN, Modules 35",−1.8
same,"z sum, 1441843_s_at 5230400M03Rik","[2]; LN, Modules 35",−2.25
same,"z sum, 1442556_at ---","[2]; LN, Modules 35",−2.03
same,"z sum, 1443414_at C78513","[2]; LN, Modules 35",−2.02
same,"z sum, 1444598_at ---","[2]; LN, Modules 35",−2
same,"z sum, 1445534_at ---","[2]; LN, Modules 35",−2
same,"z sum, 1446245_at ---","[2]; LN, Modules 35",−2.34
same,"z sum, 1457944_at ---","[2]; LN, Modules 35",−2.16
same,"z sum, 1458376_at B930025B16Rik","[2]; LN, Modules 35",−2.11
same,"z sum, 1459144_at ---","[2]; LN, Modules 35",−2.06
same,"z sum, 1425687_at Cflar","[2]; LN, Modules 36",−1.76
same,"z sum, 1427736_a_at Ccrl2","[2]; LN, Modules 36",−2.22
same,"z sum, 1449169_at Has2","[2]; LN, Modules 36",−2.25
same,"z sum, 1453636_at Pcgf5","[2]; LN, Modules 36",−2.11
same,"z sum, 1457888_at ---","[2]; LN, Modules 36",−2.02
same,"z sum, 1419508_at Ripk1","[2]; LN, Modules 37",−2.04
same,"z sum, 1421578_at Ccl4","[2]; LN, Modules 37",−1.85
same,"z sum, 1421679_a_at Cdkn1a","[2]; LN, Modules 37",−1.99
same,"z sum, 1424638_at Cdkn1a","[2]; LN, Modules 37",−1.71
same,"z sum, 1433508_at Klf6","[2]; LN, Modules 37",−1.54
same,"z sum, 1434350_at Csrnp1","[2]; LN, Modules 37",−1.99
same,"z sum, 1439680_at Tnfsf10","[2]; LN, Modules 37",−2.27
same,"z sum, 1448724_at Cish","[2]; LN, Modules 37",−1.56
same,"z sum, 1451340_at Arid5a","[2]; LN, Modules 37",−2.28
same,"z sum, 1453851_a_at Gadd45g","[2]; LN, Modules 37",−2
same,"z sum, 1457404_at Nfkbiz","[2]; LN, Modules 37",−2.06
same,"z sum, 1458589_at ---","[2]; LN, Modules 37",−1.59
same,"z sum, 1422054_a_at 5kil","[2]; LN, Modules 40",−1.69
same,"z sum, 1428735_at Cd69","[2]; LN, Modules 40",−2.42
same,"Adar 1425405_a_at (Group G1, Modules 20)","[2]; LV, sample x1",2.03
same,"Adar 1434268_at (Group G1, Modules 20)","[2]; LV, sample x1",2.15
same,"Ddx58 1436562_at (Group G1, Modules 20)","[2]; LV, sample x1",2.07
same,"Ddx58 1456890_at (Group G1, Modules 20)","[2]; LV, sample x1",1.67
same,"Eif2ak2 1422005_at (Group G1, Modules 20)","[2]; LV, sample x1",1.36
same,"G3bp2 1421323_a_at (Group G1, Modules 20)","[2]; LV, sample x1",1.32
same,"Gm9706///Isg15 1431591_s_at (Group G1, Modules 20)","[2]; LV, sample x1",1.28
same,"H2-T10///H2-T22///H2-T9 1449875_s_at (Group G1, Modules 20)","[2]; LV, sample x1",1.27
same,"Ifih1 1426276_at (Group G1, Modules 20)","[2]; LV, sample x1",1.25
same,"Ifit1 1450783_at (Group G1, Modules 20)","[2]; LV, sample x1",2.21
same,"Ifit3 1449025_at (Group G1, Modules 20)","[2]; LV, sample x1",1.39
same,"Irf7 1417244_a_at (Group G1, Modules 20)","[2]; LV, sample x1",1.05
same,"Irgm1 1418825_at (Group G1, Modules 20)","[2]; LV, sample x1",1.39
same,"Mndal 1426906_at (Group G1, Modules 20)","[2]; LV, sample x1",1.42
same,"Pml 1448757_at (Group G1, Modules 20)","[2]; LV, sample x1",1.62
same,"Pml 1456103_at (Group G1, Modules 20)","[2]; LV, sample x1",2.18
same,"Rnf213 1455500_at (Group G1, Modules 20)","[2]; LV, sample x1",1.79
